Reference: US20130287688A1, “NOVEL COMPOSITIONS AND USES OF ANTI-HYPERTENSION AGENTS FOR CANCER THERAPY” (XTUIT PHARMACEUTICALS, INC., priority 2010, published 2013)

Key:
[1] = tested on: E0771 tumors; assay: Hypoxic fraction by pimonidazole staining; design: species or system mice; settings: mouse, in vivo
Procedure: Losartan decreases the hypoxic fraction in E0771 tumors (P=0.027, Student's t-test) due to the increase in oxygen delivery.
Oxygenation was then studied using phosphorescence quenching microscopy. […] This decrease in tumor hypoxia was confirmed by using pimonidazole staining (FIGS. 29D and 30). To determine if losartan also increases nanomedicine delivery, which is dependent on both vascular supply and penetration across vessel walls into tumor tissue, nanoparticle penetration was measured using intravital multiphoton microscopy. Nanoparticle penetration rates were quantified as transvascular mass flux per unit vascular surface area and transvascular concentration difference, termed as the effective permeability. […] Penetration rates are largely dependent on fluid flow through the viscoelastic and tortuous tumor interstitium, which is a function of interstitial hydraulic conductivity. It was determined that losartan also increases the hydraulic conductivity of E0771 tumors (FIG. 31), likely through its anti-matrix effects, and a mathematical model (Chauhan V P, et al., Nature Nanotechnology. 2012; advance online publication) was used to confirm that this can improve the penetration rate of all sizes of nanomedicines (FIG. 32). Thus, “microenvironmental normalization” with ARBs and ACE-Is increases the delivery of oxygen and all sizes of therapeutics to tumors. […]

[2] = tested on: 4T1 breast tumors; assay: Breast tumor growth and survival studies; assay type: in vivo, mice
Source text: In FIG. 35B, the quantification of tumor growth rates, based on the time to reach double the initial volume, is shown.
In FIG. 35C, the animal survival following the initiation of treatment is shown. […] Statistical tests were corrected for multiple comparisons using the Holm-Bonferroni method.
Breast tumor growth and survival studies: Mice bearing orthotopic E0771 or 4T1 breast tumors were split into treatment groups, time-matched for time after implantation and size-matched for tumor volume at this time (110-111 mm^3 in E0771, in 4T1). […] The primary tumors were then measured every 2 days, beginning on day 0, using calipers. Tumor growth was quantified using the time for each to reach double its initial volume Animal survival was quantified based on time of death after initiation of treatment or time to reach excessive tumor burden (>1000 mm^3).

[3] = tested on: L3.6 pl orthotopic pancreatic tumors; assay: Distribution and penetration of intravenously injected 100 nm nanoparticles; assay type: in vivo, mice; settings: i.v. injected 100 nm nanoparticles
Procedure: The inventors then assessed the effect of losartan on blood vessel perfusion and the intratumoral distribution of i.v. injected nanoparticles in mice with orthotopic pancreatic tumors (L3.6 pl).
A total volume of 10 μl at a concentration of 3.6×10^13 nanoparticles/ml was injected via the tail vein. Twenty-four hrs later 50 μl of FITC-lectin was injected to identify functional vessels. Five min after the lectin-injection tumors were resected, fixed in paraformaldehyde and embedded in OCT. Tumors were then sectioned before confocal imaging and analysis. The extent of nanosphere distribution was determined by measuring the fraction of pixels brighter than the background signal. Nanosphere penetration was determined by drawing contours around perfused vessels and recording the fraction of pixels positive for nanospheres in each contour. Contours extended out to 30 μm for each perfused vessel. Using a previously described algorithm (Tong R T, et al. (2004) Cancer Res 64:3731-3736), the inventors fit the plot of nanosphere fraction and distance away from the vessel to an exponential and obtained a relative penetration depth of nanospheres from each vessel.

[4] = tested on: HSTS26T tumors; assay: Second harmonic generation (SHG) imaging of fibrillar collagen in dorsal skin fold chamber tumors; assay type: in vivo, SCID mice; settings: for decrease in SHG levels (collagen): end of 15 days
Procedure: Cozaar (losartan potassium) tablets were ground using a mortar and pestle. The powder was then dissolved in water to obtain a concentration of 2.5 mg/ml. The solution was then filtered and stored in a sterile container.
Second Harmonic Imaging (SHG) imaging was performed in dorsal chamber tumors with a custom-built multiphoton laser-scanning microscope (Brown E, et al. (2003) Nat Med 9:796-800). Polarized light from a Ti:Sapphire laser (Mai-Tai Broadband: Spectra-Physics, Mountain View, Calif.) was converted to circularly polarized light using a zero order quarter wave plate (Newport Corporation, Irvine, Calif.). An excitation wavelength of 810 nm and detected SHG signals at 405 nm was used. SCID mice bearing HSTS26T tumors in dorsal chambers were either treated with losartan (10, 20 or 60 mg/kg/day) or saline for the duration of the dose response experiment (15 days). Vascular markers were used to locate 4 regions of interest in each mouse and periodically returned to the same region of SHG imaging. SHG images were analyzed with a custom-built Matlab (The MathWorks, Inc., Natick, Mass.) code. The fraction of the region of interest (ROI) that was positive for the SHG signal was normalized to the amount of SHG signal obtained on day 1 of the dose response study (before initiation of losartan or saline treatment).

SMILES: CCCCc1nc(Cl)c(CO)n1Cc1ccc(-c2ccccc2-c2nn[nH]n2)cc1 [losartan]
- hypoxic fraction [1]: decreases
- tumor growth rate ([2]; agent given alone (losartan 40 mg/kg daily or doxorubicin 2 mg/kg every three days)): no significant effect
- survival ([2]; combination of losartan and doxorubicin): improved survival
- tumor growth ([2]; losartan in combination with doxorubicin): significantly delayed
- survival ([2]; monotherapy): did not shorten survival
- nanoparticle content in tumors vs control [3]: two-fold increase
- intratumoral SHG signal intensity ([4]; 10 mg/kg/day i.p.): did not have a significant effect
- decrease in SHG levels (collagen) ([4]; 10 mg/kg/day i.p.): 20%
- intratumoral SHG signal intensity ([4]; 20 mg/kg/day i.p.): significantly reduced
- decrease in SHG levels (collagen) ([4]; 20 mg/kg/day i.p.): 33%
- intratumoral SHG signal intensity ([4]; 60 mg/kg/day i.p.): significantly reduced
- decrease in SHG levels (collagen) ([4]; 60 mg/kg/day i.p.): 67%
